Laboratory results from US20150141381A1, “TETRACYCLINE COMPOUNDS HAVING TARGET THERAPEUTIC ACTIVITIES” (Paratek Pharmaceuticals, Inc., priority 2001, published 2015).
Like-named read-outs stand apart in the source and are kept apart here.

Key:
S. aureus RN450 = experiment: In Vitro Anti-Bacterial Activity Assay (MIC), gram positive; assay type: cell-based; settings: Staphylococcus aureus, RN450, 18 h
E. coli mL308 225 = experiment: In Vitro Anti-Bacterial Activity Assay (MIC), gram negative; assay type: cell-based; settings: Escherichia coli, ML308225, 18 h
[1] = gram positive bacteria, read-out: Antibiotic Activity Gram + (MIC)
[2] = gram negative bacteria, read-out: Antibiotic Activity Gram − (MIC)
[3] = MIC class, Table 3, read-out: Antibiotic Activity Gram +
[4] = MIC class, Table 3, read-out: Antibiotic Activity Gram −
[5] = MIC class, Table 3 (Continued), read-out: Gram+ activity
[6] = MIC class, Table 3 (Continued), read-out: Gram− activity

Row | Structure (SMILES) | MIC (S. aureus RN450; [1]) [µg/mL] | MIC (E. coli mL308 225; [2]) [µg/mL] | other results
1 | CC(C)Cc1cc(N(C)C)c2c(c1O)C(=O)C1=C(O)[C@]3(O)C(=O)C(C(N)=O)=C(O)[C@@H](N(C)C)[C@@H]3C[C@@H]1C2 | < 4 | < 4 | –
2 | C[C@H]1c2ccc(N3CCOCC3)c(O)c2C(=O)C2=C(O)[C@]3(O)C(=O)C(C(N)=O)=C(O)[C@@H](N(C)C)[C@@H]3[C@@H](O)[C@@H]21 | > 4 | > 4 | –
3 | COc1ccc(CNCCc2ccccc2)cc1-c1ccc(O)c2c1C[C@H]1C[C@H]3[C@H](N(C)C)C(O)=C(C(N)=O)C(=O)[C@@]3(O)C(O)=C1C2=O | < 4 | < 4 | –
4 | CN(C)[C@@H]1C(O)=C(C(N)=O)C(=O)[C@@]2(O)C(O)=C3C(=O)c4c(O)c(C(C)(C)C)cc(C(N)C(=O)O)c4C[C@H]3C[C@@H]12 (stereo partly drawn) [FS] | – | – | MIC (S. aureus RN450; [3]): > 4 µg/mL; MIC (E. coli mL308 225; [4]): > 4 µg/mL
5 | CN(C)Cc1ccc(-c2ccc(O)c3c2C[C@H]2C[C@H]4[C@H](N(C)C)C(O)=C(C(N)=O)C(=O)[C@@]4(O)C(O)=C2C3=O)o1 [HL] | – | – | MIC (S. aureus RN450; [3]): < 4 µg/mL; MIC (E. coli mL308 225; [4]): < 4 µg/mL
6 | CN(C)c1cc(NC(=S)Nc2cc(C(F)(F)F)cc(C(F)(F)F)c2)c(O)c2c1C[C@H]1C[C@H]3[C@H](N(C)C)C(O)=C(C(N)=O)C(=O)[C@@]3(O)C(O)=C1C2=O [CI] | – | – | MIC (S. aureus RN450; [3]): < 4 µg/mL; MIC (E. coli mL308 225; [4]): > 4 µg/mL
7 | CN(C)[C@@H]1C(O)=C(C(N)=O)C(=O)[C@@]2(O)C(O)=C3C(=O)c4c(O)ccc(-c5ccco5)c4C[C@H]3C[C@@H]12 | – | – | MIC (S. aureus RN450; [5]): < 4 µg/mL; MIC (E. coli mL308 225; [6]): < 4 µg/mL
8 | CN(C)[C@@H]1C(O)=C(C(N)=O)C(=O)[C@@]2(O)C(O)=C3C(=O)c4c(O)ccc(-c5ccc(CNCc6cccc(Cl)c6)cc5)c4C[C@H]3C[C@@H]12 | < 4 | < 4 | –
9 | CN(C)c1cc(CNC(CF)CF)c(O)c2c1C[C@H]1C[C@H]3[C@H](N(C)C)C(O)=C(C(N)=O)C(=O)[C@@]3(O)C(O)=C1C2=O | < 4 | – | MIC (E. coli mL308 225; read-out: Antibiotic Activity Gram − (MIC)): > 4 µg/mL
10 | CN(C)[C@@H]1C(O)=C(C(N)=O)C(=O)[C@@]2(O)C(O)=C3C(=O)c4c(O)ccc(C#CC(=O)O)c4C[C@H]3C[C@@H]12 [BH] | – | – | MIC (S. aureus RN450; [3]): > 4 µg/mL; MIC (E. coli mL308 225; [4]): > 4 µg/mL
11 | CC(C)NCc1cc(N(C)C)c2c(c1O)C(=O)C1=C(O)[C@]3(O)C(=O)C(C(N)=O)=C(O)[C@@H](N(C)C)[C@@H]3C[C@@H]1C2 | < 4 | > 4 | –
12 | CN(C)c1cc(CNC(=O)[C@@H]2CCCN2C)c(O)c2c1C[C@H]1C[C@H]3[C@H](N(C)C)C(O)=C(C(N)=O)C(=O)[C@@]3(O)C(O)=C1C2=O | < 4 | > 4 | –
13 | CO/N=C(/C)c1cc(C(C)(C)C)c(O)c2c1C[C@H]1C[C@H]3[C@H](N(C)C)C(O)=C(C(N)=O)C(=O)[C@@]3(O)C(O)=C1C2=O [IC] | – | – | MIC (S. aureus RN450; [3]): < 4 µg/mL; MIC (E. coli mL308 225; [4]): > 4 µg/mL
14 | COC(=O)C1CCN(Cc2ccc(-c3ccc(O)c4c3C[C@H]3C[C@H]5[C@H](N(C)C)C(O)=C(C(N)=O)C(=O)[C@@]5(O)C(O)=C3C4=O)cc2)CC1 | < 4 | < 4 | –
15 | CCCCCC(=O)c1ccc(O)c2c1C[C@H]1C[C@H]3[C@H](N(C)C)C(O)=C(C(N)=O)C(=O)[C@@]3(O)C(O)=C1C2=O | < 4 | < 4 | –
16 | CN(C)[C@@H]1C(O)=C(C(N)=O)C(=O)[C@@]2(O)C(O)=C3C(=O)c4c(O)c(S(=O)(=O)O)cc(Cl)c4C=C3C[C@@H]12 | > 4 | > 4 | –
17 | CN(C)c1ccc(-c2cc(C(C)(C)C)c(O)c3c2C[C@H]2C[C@H]4[C@H](N(C)C)C(O)=C(C(N)=O)C(=O)[C@@]4(O)C(O)=C2C3=O)cc1 | > 4 | > 4 | –
18 | Cc1ccc(-c2ccc(O)c3c2C[C@H]2C[C@H]4[C@H](N(C)C)C(O)=C(C(N)=O)C(=O)[C@@]4(O)C(O)=C2C3=O)cn1 | < 4 | < 4 | –
19 | CCCCN(c1ccc2c(c1O)C(=O)C1=C(O)[C@]3(O)C(=O)C(C(N)=O)=C(O)[C@@H](N(C)C)[C@@H]3[C@@H](O)[C@@H]1[C@H]2C)C1CCN(C)CC1 | < 4 | > 4 | –
20 | CN(C)[C@@H]1C(O)=C(C(N)=O)C(=O)[C@@]2(O)C(O)=C3C(=O)c4c(O)ccc(-c5ccc(NC(=O)OCCF)cc5)c4C[C@H]3C[C@@H]12 | < 4 | > 4 | –
21 | Cc1cc(C(C)(C)C)c(O)c2c1C[C@H]1C[C@H]3[C@H](N(C)C)C(O)=C(C(N)=O)C(=O)[C@@]3(O)C(O)=C1C2=O | < 4 | > 4 | –
22 | CC1OC(=O)NC1COC(=O)N(Cc1cc(N(C)C)c2c(c1O)C(=O)C1=C(O)[C@]3(O)C(=O)C(C(N)=O)=C(O)[C@@H](N(C)C)[C@@H]3C[C@@H]1C2)CC(C)(C)C (stereo partly drawn) | < 4 | > 4 | –
23 | CN(C)[C@@H]1C(O)=C(C(N)=O)C(=O)[C@@]2(O)C(O)=C3C(=O)c4c(O)ccc(-c5ccc(CN6CCCC6)cc5)c4C[C@H]3C[C@@H]12 [JZ] | – | – | MIC (S. aureus RN450; [3]): < 4 µg/mL; MIC (E. coli mL308 225; [4]): < 4 µg/mL

Row | Structure (SMILES) | MIC (S. aureus RN450; [1]) [µg/mL] | MIC (E. coli mL308 225; [2]) [µg/mL] | other results
24 | CN(C)[C@@H]1C(O)=C(C(N)=O)C(=O)[C@@]2(O)C(O)=C3C(=O)c4c(O)ccc(-c5cccc([N+](=O)[O-])c5)c4C[C@H]3C[C@@H]12 | – | – | MIC (S. aureus RN450; [5]): < 4 µg/mL; MIC (E. coli mL308 225; [6]): < 4 µg/mL
25 | CN(C)[C@@H]1C(O)=C(C(N)=O)C(=O)[C@@]2(O)C(O)=C3C(=O)c4c(O)ccc(C#CC5CCCCC5)c4C[C@H]3C[C@@H]12 | – | – | MIC (S. aureus RN450; [5]): < 4 µg/mL; MIC (E. coli mL308 225; [6]): < 4 µg/mL
26 | CN(C)c1cc(CNCc2ccc(F)cc2)c(O)c2c1C[C@H]1C[C@H]3[C@H](N(C)C)C(O)=C(C(N)=O)C(=O)[C@@]3(O)C(O)=C1C2=O | < 4 | < 4 | –
27 | CN1CCN(Cc2ccc(-c3cc(N(C)C)c4c(c3O)C(=O)C3=C(O)[C@]5(O)C(=O)C(C(N)=O)=C(O)[C@@H](N(C)C)[C@@H]5C[C@@H]3C4)o2)CC1 | < 4 | > 4 | –
28 | CN(C)[C@@H]1C(O)=C(C(N)=O)C(=O)[C@@]2(O)C(O)=C3C(=O)c4c(ccc(NC(=O)c5ccno5)c4O)C[C@H]3C[C@@H]12 [IJ] | – | – | MIC (S. aureus RN450; [3]): < 4 µg/mL; MIC (E. coli mL308 225; [4]): > 4 µg/mL
29 | CSCc1cc(-c2ccccn2)c2c(c1O)C(=O)C1=C(O)[C@]3(O)C(=O)C(C(N)=O)=C(O)[C@@H](N(C)C)[C@@H]3C[C@@H]1C2 | < 4 | > 4 | –
30 | CCc1cc(N)c(O)c2c1C[C@H]1C[C@H]3[C@H](N(C)C)C(O)=C(C(N)=O)C(=O)[C@@]3(O)C(O)=C1C2=O | < 4 | < 4 | –
31 | CN(C)[C@@H]1C(O)=C(C(N)=O)C(=O)[C@@]2(O)C(O)=C3C(=O)c4c(O)ccc(C#CCO)c4C[C@H]3C[C@@H]12 | < 4 | > 4 | –
32 | CN(C)c1ccc(-c2cc(CN)c(O)c3c2C[C@H]2C[C@H]4[C@@H](N(C)C)C(O)=C(C(N)=O)C(=O)[C@@]4(O)C(O)=C2C3=O)cc1 [HQ] | – | – | MIC (S. aureus RN450; [3]): < 4 µg/mL; MIC (E. coli mL308 225; [4]): > 4 µg/mL
33 | CN(C)c1cc(-c2ccc(C(=O)O)cc2)c(O)c2c1C[C@H]1C[C@H]3[C@H](N(C)C)C(O)=C(C(N)=O)C(=O)[C@@]3(O)C(O)=C1C2=O | – | – | MIC (S. aureus RN450; [5]): < 4 µg/mL; MIC (E. coli mL308 225; [6]): < 4 µg/mL
34 | CN(C)[C@@H]1C(O)=C(C(N)=O)C(=O)[C@@]2(O)C(O)=C3C(=O)c4c(O)ccc(/C=C/c5ccccc5)c4C[C@H]3C[C@@H]12 | – | – | MIC (S. aureus RN450; [5]): < 4 µg/mL; MIC (E. coli mL308 225; [6]): < 4 µg/mL
35 | CC(=O)c1cc(CNCC(C)(C)C)c(O)c2c1C[C@H]1C[C@H]3[C@H](N(C)C)C(O)=C(C(N)=O)C(=O)[C@@]3(O)C(O)=C1C2=O | < 4 | > 4 | –
36 | CN(C)[C@@H]1C(O)=C(C(N)=O)C(=O)[C@@]2(O)C(O)=C3C(=O)c4c(ccc(CNCC(C)(C)C)c4O)C[C@H]3C[C@@H]12 [MZ] | – | – | MIC (S. aureus RN450; [3]): < 4 µg/mL; MIC (E. coli mL308 225; [4]): < 4 µg/mL
37 | CC1c2c(-c3ccc(Cl)cc3)ccc(O)c2C(=O)C2=C(O)[C@]3(O)C(=O)C(C(N)=O)=C(O)[C@@H](N(C)C)[C@@H]3[C@@H](O)[C@@H]21 (stereo partly drawn) | – | – | MIC (S. aureus RN450; [5]): < 4 µg/mL; MIC (E. coli mL308 225; [6]): < 4 µg/mL
38 | CC(C)CNC(=O)Nc1ccc(-c2ccc(O)c3c2C[C@H]2C[C@H]4[C@H](N(C)C)C(O)=C(C(N)=O)C(=O)[C@@]4(O)C(O)=C2C3=O)cc1 | < 4 | < 4 | –
39 | COc1ccc(-c2ccc3c(c2O)C(=O)C2=C(O)[C@]4(O)C(=O)C(C(N)=O)=C(O)[C@@H](N(C)C)[C@@H]4[C@@H](O)[C@@H]2[C@H]3C)cc1CC1CCCC1 | > 4 | > 4 | –
40 | COc1ccc(OC(=O)Nc2ccc3c(c2O)C(=O)C2=C(O)[C@]4(O)C(=O)C(C(N)=O)=C(O)[C@@H](N(C)C)[C@@H]4C[C@@H]2C3)cc1 [AS] | – | – | MIC (S. aureus RN450; read-out: Antibiotic Activity Gram +): < 4 µg/mL; MIC (E. coli mL308 225; read-out: Antibiotic Activity Gram −): > 4 µg/mL
41 | CN(C)[C@@H]1C(O)=C(C(N)=O)C(=O)[C@@]2(O)C(O)=C3C(=O)c4c(O)cccc4[C@@](C)(O)[C@H]3C[C@@H]12 [D] | – | – | MIC (S. aureus RN450; [3]): < 4 µg/mL; MIC (E. coli mL308 225; [4]): < 4 µg/mL
42 | CN(C)[C@@H]1C(O)=C(C(N)=O)C(=O)[C@@]2(O)C(O)=C3C(=O)c4c(O)ccc(-c5ccc(NC(=O)OC(C)(C)C)cc5)c4C[C@H]3C[C@@H]12 | < 4 | < 4 | –
43 | COc1ccc(-c2ccc(O)c3c2C[C@H]2C[C@H]4[C@H](N(C)C)C(O)=C(C(N)=O)C(=O)[C@@]4(O)C(O)=C2C3=O)cc1C=O [HW] | – | – | MIC (S. aureus RN450; [3]): < 4 µg/mL; MIC (E. coli mL308 225; [4]): < 4 µg/mL
44 | CC(=O)O[C@@H]1[C@H]2[C@H](N(C)C)C(O)=C(C(N)=O)C(=O)[C@@]2(O)C(O)=C2C(=O)c3c(O)cccc3C(C)[C@H]21 (stereo partly drawn) | – | – | MIC (S. aureus RN450; [5]): < 4 µg/mL; MIC (E. coli mL308 225; [6]): < 4 µg/mL
45 | CN(C)c1cc(CNCC(=O)O)c(O)c2c1C[C@H]1C[C@H]3[C@H](N(C)C)C(O)=C(C(N)=O)C(=O)[C@@]3(O)C(O)=C1C2=O | > 4 | > 4 | –
